The target of test [1] is T1, Cholinesterase (Homo sapiens, UniProt P06276). As to the kind of experiment: Inhibition of BChE (unknown origin) at 5 uM incubated for 10 mins by Ellman's method relative to control.
In test [2] the target is T1, Cholinesterase.
Description: Inhibition of BChE (unknown origin) incubated for 10 mins by Ellman's method
In test [3] the target is Acetylcholinesterase (Homo sapiens) (UniProt P22303). The test can be described thus: Inhibition of AChE (unknown origin) at 5000 nM by Ellman's method.

Activity calls are given as the source filed them. The rule behind the calls is not given here. Where a SMILES comes first, the peptide text is derived from it. The star is where a group is joined. Boc = CC(C)(C)OC(=O)*

T1 sequence (P06276 whole entry): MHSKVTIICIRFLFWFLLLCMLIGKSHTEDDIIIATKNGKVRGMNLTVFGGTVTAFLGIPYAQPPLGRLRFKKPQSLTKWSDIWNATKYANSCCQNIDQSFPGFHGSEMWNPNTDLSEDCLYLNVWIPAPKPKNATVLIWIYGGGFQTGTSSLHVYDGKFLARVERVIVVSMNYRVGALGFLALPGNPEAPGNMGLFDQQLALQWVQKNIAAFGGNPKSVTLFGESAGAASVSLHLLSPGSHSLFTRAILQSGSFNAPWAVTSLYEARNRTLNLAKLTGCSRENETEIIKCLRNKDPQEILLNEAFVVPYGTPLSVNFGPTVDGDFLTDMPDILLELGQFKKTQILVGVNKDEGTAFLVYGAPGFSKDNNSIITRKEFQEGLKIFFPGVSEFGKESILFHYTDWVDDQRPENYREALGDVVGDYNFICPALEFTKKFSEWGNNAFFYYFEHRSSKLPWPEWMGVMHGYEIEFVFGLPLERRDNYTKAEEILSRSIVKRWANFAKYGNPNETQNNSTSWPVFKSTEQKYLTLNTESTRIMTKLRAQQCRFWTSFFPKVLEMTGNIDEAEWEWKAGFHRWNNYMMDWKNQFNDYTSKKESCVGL
Sequence of Acetylcholinesterase (Homo sapiens) (P22303 whole entry): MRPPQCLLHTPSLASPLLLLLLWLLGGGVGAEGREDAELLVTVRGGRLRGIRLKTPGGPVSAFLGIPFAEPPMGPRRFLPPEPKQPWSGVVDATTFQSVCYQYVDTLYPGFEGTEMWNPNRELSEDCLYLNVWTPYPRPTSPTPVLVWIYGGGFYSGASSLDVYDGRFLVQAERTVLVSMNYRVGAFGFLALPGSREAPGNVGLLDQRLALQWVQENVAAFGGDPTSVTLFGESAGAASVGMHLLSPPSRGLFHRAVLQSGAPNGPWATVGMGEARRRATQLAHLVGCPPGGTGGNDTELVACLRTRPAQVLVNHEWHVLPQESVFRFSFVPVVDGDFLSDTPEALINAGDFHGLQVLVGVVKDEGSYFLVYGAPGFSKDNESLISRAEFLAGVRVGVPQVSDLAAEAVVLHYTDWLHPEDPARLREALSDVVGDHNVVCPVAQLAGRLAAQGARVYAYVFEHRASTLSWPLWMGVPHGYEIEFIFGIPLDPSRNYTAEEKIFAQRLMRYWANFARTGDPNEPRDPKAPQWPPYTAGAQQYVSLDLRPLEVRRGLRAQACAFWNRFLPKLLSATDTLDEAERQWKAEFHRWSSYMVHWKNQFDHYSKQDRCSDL

For the compound `COC(=O)C(Cc1c[nH]c2ccccc12)NC(=O)C(Cc1c[nH]c2ccccc12)NC(=O)C(Cc1c[nH]c2ccccc12)NC(=O)C(Cc1c[nH]c2ccccc12)NC(=O)OC(C)(C)C` (stereo not drawn) (Boc-WWWW-OMe; configuration not given here), the inhibition on Cholinesterase [1] stood at 51.2%. Take `Cc1ccc2nc(CN(CCN(Cc3nc4ccc(C)cc4[nH]3)Cc3nc4ccc(C)cc4[nH]3)Cc3nc4ccc(C)cc4[nH]3)[nH]c2c1`: the inhibition against Cholinesterase [1] came out at 41.7%. On the same count and under the same terms, with `Cn1c(=O)c2[nH]c(CCc3nc4c([nH]3)c(=O)n(C)c(=O)n4C)nc2n(C)c1=O` the figure was 17.9%. For `Cc1c(C(=O)CSc2nc3ccccc3[nH]2)c(=O)n(-c2ccccc2)n1C`, the inhibition against Cholinesterase [1] turned out to be 62.7%. `COC(=O)C(Cc1c[nH]c2ccccc12)NC(=O)C(Cc1c[nH]c2ccccc12)NC(=O)OCc1ccccc1` (stereo not drawn): the inhibition against Cholinesterase [1] is 92.9%. With `c1ccc2[nH]c(SCCSc3nc4ccccc4[nH]3)nc2c1`, the inhibition on Cholinesterase [1] turned out to be 81.2%. At Cholinesterase [2], the IC50 came to 3030 nM. Also, in test [3], the inhibition entry was “inactive”. Turning to `Cn1c(=O)c2nc(CS(=O)(=O)Cc3nc4c(=O)n(C)c(=O)n(C)c4[nH]3)[nH]c2n(C)c1=O`, at Cholinesterase [1], the inhibition is 8%. Regarding `c1ccc2c(CN3CCN(Cc4c[nH]c5ccccc45)CC3)c[nH]c2c1`, the inhibition against Cholinesterase [1] came out at 76.5%. The same compound gave an IC50 against Cholinesterase [2] of 987 nM. In test [3], the inhibition entry was “inactive”. For `CCC(C)C(NC(=O)C(CC(C)C)NC(=O)C(N)Cc1c[nH]c2ccccc12)C(=O)NC(Cc1c[nH]c2ccccc12)C(=O)O` (stereo not drawn) (H-WLIW-OH; configuration not given here), the inhibition on Cholinesterase [1] is 38.9%. Take `CN(C)c1ccc(C=CC(=O)c2nc3ccccc3[nH]2)cc1`: the inhibition against Cholinesterase [1] came to 43.2%.

Consider `COc1ccc(OC)c2[nH]c(CCc3nc4c(OC)ccc(OC)c4[nH]3)nc12`, for which the inhibition against Cholinesterase [1] was 16.7%. As to `Cc1cc(S(=O)(=O)Nc2nc3ccccc3[nH]2)c(S)cc1Cl`, on Cholinesterase [1], the inhibition was determined as 48.5%. With `Cc1[nH]c2ccccc2c1C(=O)CC1(O)C(=O)Nc2c(Cl)cc(Cl)cc21` (stereo not drawn), the inhibition against Cholinesterase [1] came out at 47.5%. Consider `Cc1nc(C(N)=S)sc1C(=O)CC(=O)C(=O)Nc1nc2ccccc2[nH]1`, for which the inhibition against Cholinesterase [1] amounted to 43.5%. In the case of `Cc1cc(CSCCc2nc3ccccc3[nH]2)c(O)c(CSCCc2nc3ccccc3[nH]2)c1`, the inhibition against Cholinesterase [1] came to 101%. The compound also displayed an IC50 at Cholinesterase [2] of 32 nM. Also, the inhibition result in test [3] was “inactive”. Turning to `CCn1c(CCCc2nc3c(=O)n(C)c(=O)n(C)c3[nH]2)nc2c1c(=O)n(C)c(=O)n2C`, at Cholinesterase [1], the inhibition was 15.4%. With `Cc1ccc2[nH]/c(=N/S(=O)(=O)c3cc(C)c(Cl)cc3S)[nH]c2c1`, the inhibition on Cholinesterase [1] was 50.9%. For the compound `Cn1c(=O)c2[nH]c(CCCc3nc4c(c(=O)n(C)c(=O)n4C)n3C)nc2n(C)c1=O`, the inhibition at Cholinesterase [1] is 25.3%.

For `COC(=O)[C@H](Cc1c[nH]c2ccccc12)NC(=O)[C@H](Cc1c[nH]c2ccccc12)NC(=O)[C@H](Cc1c[nH]c2ccccc12)NC(=O)OC(C)(C)C` (Boc-Trp-Trp-Trp-OMe), the inhibition against Cholinesterase [1] came out at 79.9%. As to `O=c1[nH]nc(Cc2ccc(Cl)cc2)n1N=Cc1c[nH]c2ccccc12`, the inhibition against Cholinesterase [1] is 20.7%.

In the case of `c1ccc2[nH]c(CN(CCN(Cc3nc4ccccc4[nH]3)Cc3nc4ccccc4[nH]3)Cc3nc4ccccc4[nH]3)nc2c1`, the inhibition on Cholinesterase [1] is 92%. At Cholinesterase [2], this compound came in with an IC50 of 1360 nM. For the same compound, the inhibition result in test [3] is “inactive”.

In the case of `Cn1c(=O)c2nc(COCc3nc4c(=O)n(C)c(=O)n(C)c4[nH]3)[nH]c2n(C)c1=O`, the inhibition against Cholinesterase [1] is 26.5%. Turning to `COC(=O)C(Cc1c[nH]c2ccccc12)NC(=O)C(Cc1c[nH]c2ccccc12)NC(=O)C(Cc1c[nH]c2ccccc12)NC(=O)C(Cc1c[nH]c2ccccc12)NC(=O)C(Cc1c[nH]c2ccccc12)NC(=O)C(Cc1c[nH]c2ccccc12)NC(=O)OC(C)(C)C` (stereo not drawn) (Boc-WWWWWW-OMe; configuration not given here), at Cholinesterase [1], the inhibition was 46%. On the same count and under the same terms, with `N#CC(C(=O)CCc1nc2ccccc2[nH]1)c1c(Cl)cccc1Cl` (stereo not drawn) the figure was 32.7%. Turning to `Cc1cc(S(=O)(=O)N=c2[nH]c3ccccc3[nH]2)c(SCc2ccccc2)cc1Cl`, the inhibition against Cholinesterase [1] worked out at 65.7%. The compound `CCN(CC)C(C)CN1c2ccccc2Sc2ccccc21` (stereo not drawn) [ETHOPROPAZINE] displayed an IC50 on Cholinesterase [2] of 210 nM.

Take `Cc1[nH]c2ccccc2c1C1=CC(c2c(C)[nH]c3ccccc23)CCC1` (stereo not drawn): the inhibition against Cholinesterase [1] amounted to 75%. As for `Cc1ccc(S(=O)(=O)C(C#N)(Cc2c[nH]c3ccccc23)Cc2c[nH]c3ccccc23)cc1`, the inhibition against Cholinesterase [1] worked out at 48.5%. On to `Cc1ccc(S(=O)(=O)OCC2CCc3[nH]c4ccccc4c3C2)cc1` (stereo not drawn), for which, at Cholinesterase [1], the inhibition is 73.1%. In the case of `Cc1cc(S(=O)(=O)N=c2[nH]c3cccc(C)c3[nH]2)c(SCc2ccccc2)cc1Cl`, on Cholinesterase [1], the inhibition stood at 55.6%.

For the compound `O=C(Nc1ccccc1)c1cc(S(=O)(=O)Nc2nc3cccnc3[nH]2)c(SSc2cc(Cl)c(C(=O)Nc3ccccc3)cc2S(=O)(=O)Nc2nc3cccnc3[nH]2)cc1Cl`, the inhibition at Cholinesterase [1] was 9.9%.

`Oc1ccc2[nH]c3c(c2c1)C[PH](Cc1cccc2ccccc12)(c1ccccc1)CC3`: on Cholinesterase [1], the inhibition is 99.7%. Still for that read-out and setting: with `Cn1c(=O)c2[nH]c(C(O)C(O)c3nc4c([nH]3)c(=O)n(C)c(=O)n4C)nc2n(C)c1=O` (stereo not drawn) the figure was 25%. Take `Cn1c(=O)c2[nH]c(CCCc3nc4c([nH]3)c(=O)n(C)c(=O)n4C)nc2n(C)c1=O`: at Cholinesterase [1], the inhibition came out at 19.1%. Regarding `Fc1ccc2[nH]c3c(c2c1)C[PH](Cc1cccc2ccccc12)(c1ccccc1)CC3`, at Cholinesterase [1], the inhibition was 97.5%.

Consider `Cc1cc2nc(C(O)C(O)C(O)C(O)c3nc4cc(C)c(C)cc4[nH]3)[nH]c2cc1C` (stereo not drawn), for which the inhibition on Cholinesterase [1] is 4%. Regarding `Cc1cc(S(=O)(=O)NC2=Nc3cccc4cccc(c34)N2)c(S)cc1Cl`, on Cholinesterase [1], the inhibition stood at 50.3%. For `O=c1[nH]c2cc(Cl)ccc2n1C1CCN(CCCC(c2ccc(F)cc2)c2ccc(F)cc2)CC1`, on Cholinesterase [1], the inhibition turned out to be 43.2%. Still for that read-out and setting: with `Cn1c(=O)c2nc(CCCCc3nc4ccccc4[nH]3)[nH]c2n(C)c1=O` the figure was 25.6%; with `O=S(=O)(Cc1nc2ccccc2[nH]1)Cc1nc2ccccc2[nH]1`, 62%.

The record behind these values is ChEMBL document CHEMBL4406906, “Discovery of potent and selective butyrylcholinesterase inhibitors through the use of pharmacophore-based screening” (Bioorg Med Chem Lett, 2019).
